Results published in PubChem BioAssay AID1845209 (Molecular Pharmacology Branch, DTP, NCI, 2023).

System: NCI-H211 tumor spheroids, viability percent test/control
Experiment: Anticancer human tumor NCI-H211 cell line growth inhibition;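 also: spheroids exposed to agents for seven days before readout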
Conditions: spheroids with HUVEC and MSC; for IC50: curve of first compound; for viability, T/C: stronger effect = lower value
Summary of the method: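 Single agents and combinations were tested on spheroids built from tumor cells plus HUVEC and hMSC, at half-log dilutions starting at or near clinical Cmax, else 10 microM; final DMSO 0.25% (v/v).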

[1] = second compound 30 pM, first compound 0.00949 µM
[2] = second compound 30 pM, first compound 0.03 µM
[3] = second compound 30 pM, first compound 0.0949 µM
[4] = second compound 30 pM, first compound 0.3 µM
[5] = second compound 30 pM, first compound 0.949 µM
[6] = second compound 30 pM, first compound 3 µM
[7] = second compound 94.9 pM, first compound 0.00949 µM
[8] = second compound 94.9 pM, first compound 0.03 µM
[9] = second compound 94.9 pM, first compound 0.0949 µM
[10] = second compound 94.9 pM, first compound 0.3 µM
[11] = second compound 94.9 pM, first compound 0.949 µM
[12] = second compound 94.9 pM, first compound 3 µM
[13] = second compound 0.0003 µM, first compound 0.00949 µM
[14] = second compound 0.0003 µM, first compound 0.03 µM
[15] = second compound 0.0003 µM, first compound 0.0949 µM
[16] = second compound 0.0003 µM, first compound 0.3 µM
[17] = second compound 0.0003 µM, first compound 0.949 µM
[18] = second compound 0.0003 µM, first compound 3 µM
[19] = second compound 0.000949 µM, first compound 0.00949 µM
[20] = second compound 0.000949 µM, first compound 0.03 µM
[21] = second compound 0.000949 µM, first compound 0.0949 µM
[22] = second compound 0.000949 µM, first compound 0.3 µM
[23] = second compound 0.000949 µM, first compound 0.949 µM
[24] = second compound 0.000949 µM, first compound 3 µM
[25] = second compound 0.003 µM, first compound 0.00949 µM
[26] = second compound 0.003 µM, first compound 0.03 µM
[27] = second compound 0.003 µM, first compound 0.0949 µM
[28] = second compound 0.003 µM, first compound 0.3 µM
[29] = second compound 0.003 µM, first compound 0.949 µM
[30] = second compound 0.003 µM, first compound 3 µM

Structure (SMILES)	IC50 (second compound 30 pM) [nM]	IC50 (second compound 94.9 pM) [nM]	IC50 (second compound 0.0003 µM) [nM]	IC50 (second compound 0.000949 µM) [nM]	IC50 (second compound 0.003 µM) [nM]	viability, T/C [3] [%]	viability, T/C [4] [%]	viability, T/C [5] [%]	viability, T/C [6] [%]	viability, T/C [9] [%]	viability, T/C [10] [%]	viability, T/C [11] [%]	viability, T/C [12] [%]	viability, T/C [15] [%]	viability, T/C [16] [%]	viability, T/C [17] [%]	viability, T/C [18] [%]	viability, T/C [21] [%]	viability, T/C [22] [%]	viability, T/C [23] [%]	further results
CNCc1ccc(-c2cc(-c3nc(-c4ccc(S(=O)(=O)C(C)C)cc4)cnc3N)on2)cc1 + COc1cc2c(cc1O)CCNC21CSC2c3c(OC(C)=O)c(C)c4c(c3C(COC1=O)N1C(O)C3Cc5cc(C)c(OC)c(O)c5C(C21)N3C)OCO4	22.8	< 9.49	< 9.49	< 9.49	< 9.49	2.15	0.93	0.77	0.11	1.02	0.78	0.59	0.11	0.73	0.7	0.5	0.1	0.88	0.66	0.34	viability, T/C [1]: 93.2%; viability, T/C [2]: 36.2%; viability, T/C [7]: 8.16%; viability, T/C [8]: 1.5%; viability, T/C [13]: 0.82%; viability, T/C [14]: 0.84%; viability, T/C [19]: 1.01%; viability, T/C [20]: 0.87%; viability, T/C [24]: 0.11%; viability, T/C [25]: 0.11%; viability, T/C [26]: 0.11%; viability, T/C [27]: 0.09%; viability, T/C [28]: 0.1%; viability, T/C [29]: 0.1%; viability, T/C [30]: 0.15%
Cn1ncnc1[C@H]1c2n[nH]c(=O)c3cc(F)cc(c23)N[C@@H]1c1ccc(F)cc1 + COc1cc2c(cc1O)CCNC21CSC2c3c(OC(C)=O)c(C)c4c(c3C(COC1=O)N1C(O)C3Cc5cc(C)c(OC)c(O)c5C(C21)N3C)OCO4	< 9.49	< 9.49	< 9.49	< 9.49	< 9.49	0.93	0.66	0.63	1	0.72	0.82	0.82	0.85	0.92	0.85	0.86	1.35	0.76	1.25	0.97	viability, T/C [1]: 0.83%; viability, T/C [2]: 0.69%; viability, T/C [7]: 0.99%; viability, T/C [8]: 0.82%; viability, T/C [13]: 0.98%; viability, T/C [14]: 0.93%; viability, T/C [19]: 1%; viability, T/C [20]: 0.89%; viability, T/C [24]: 0.5%; viability, T/C [25]: 0.48%; viability, T/C [26]: 0.12%; viability, T/C [27]: 0.1%; viability, T/C [28]: 0.1%; viability, T/C [29]: 0.11%; viability, T/C [30]: 0.4%
O=C(c1cc(Cc2n[nH]c(=O)c3ccccc23)ccc1F)N1CCN(C(=O)C2CC2)CC1 + COc1cc2c(cc1O)CCNC21CSC2c3c(OC(C)=O)c(C)c4c(c3C(COC1=O)N1C(O)C3Cc5cc(C)c(OC)c(O)c5C(C21)N3C)OCO4	95.2	< 94.9	< 94.9	< 94.9	< 94.9	50.5	16.1	1.62	0.78	2.31	1.2	0.86	0.78	1.39	0.85	0.91	0.8	0.69	1.29	1.05	viability, T/C (second compound 30 pM, first compound 9.49 µM): 0.73%; viability, T/C (second compound 30 pM, first compound 30 µM): 0.73%; viability, T/C (second compound 94.9 pM, first compound 9.49 µM): 0.78%; viability, T/C (second compound 94.9 pM, first compound 30 µM): 0.95%; viability, T/C (second compound 0.0003 µM, first compound 9.49 µM): 1.69%; viability, T/C (second compound 0.0003 µM, first compound 30 µM): 0.79%; viability, T/C [24]: 0.61%; viability, T/C (second compound 0.000949 µM, first compound 9.49 µM): 0.73%; viability, T/C (second compound 0.000949 µM, first compound 30 µM): 0.72%; viability, T/C [27]: 0.44%; viability, T/C [28]: 0.28%; viability, T/C [29]: 0.1%; viability, T/C [30]: 0.21%; viability, T/C (second compound 0.003 µM, first compound 9.49 µM): 0.25%; viability, T/C (second compound 0.003 µM, first compound 30 µM): 0.2%
